Assay results: paper PMC10629583, “Specific inhibition of an anticancer target, polo-like kinase 1, by allosterically dismantling its mechanism of substrate recognition” (Proceedings of the National Academy of Sciences of the …, 2023)

Key:
[1] = biological target: T1, Plk2 PBD (PBD2) (Homo sapiens, UniProt Q9NYY3); assay: FP-based inhibition assay, PBD2; type: binding; conditions: bacterially expressed purified PBD, FITC-ligand 15 nM, PBD at EC85
T1 construct: Purification of PBD2-His (355–685) (pKM3358) and its S652F mutant (pKM7980); His (C); made in house; host or cells: bacteria (E. coli)
T1 sequence (Q9NYY3 355-685): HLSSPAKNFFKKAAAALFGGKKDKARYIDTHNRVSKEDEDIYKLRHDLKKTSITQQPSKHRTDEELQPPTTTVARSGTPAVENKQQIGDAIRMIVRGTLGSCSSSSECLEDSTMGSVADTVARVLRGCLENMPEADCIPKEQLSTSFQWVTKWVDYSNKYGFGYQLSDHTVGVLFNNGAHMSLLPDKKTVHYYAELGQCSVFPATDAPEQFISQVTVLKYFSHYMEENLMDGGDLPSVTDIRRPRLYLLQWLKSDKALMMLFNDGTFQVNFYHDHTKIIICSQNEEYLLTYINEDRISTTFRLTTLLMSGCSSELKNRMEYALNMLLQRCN
Protocol: FP assays were carried out essentially as described previously ([35], [36]). […] All the samples were analyzed approximately 30 min after reaction in a 384-well format using the SpectraMax Paradigm multimode microplate detection platform (Molecular Devices). Data were analyzed after carrying out at least three independent experiments using GraphPad Prism software version 8.

[2] = biological target: T2, PBD1 F559E mutant (Homo sapiens, UniProt P53350, F559E); assay: FP-based binding/inhibition assay, PBD1 F559E; conditions: PBD1 F559E at EC85
T2 construct: constructs expressing PBD1 (residues 345–603) WT (pKM7650), F559D (pKM7878), F559E (pKM7879); His; TEV site (N); made in house; host or cells: bacteria (E. coli)
T2 sequence (P53350 345-603 F559E): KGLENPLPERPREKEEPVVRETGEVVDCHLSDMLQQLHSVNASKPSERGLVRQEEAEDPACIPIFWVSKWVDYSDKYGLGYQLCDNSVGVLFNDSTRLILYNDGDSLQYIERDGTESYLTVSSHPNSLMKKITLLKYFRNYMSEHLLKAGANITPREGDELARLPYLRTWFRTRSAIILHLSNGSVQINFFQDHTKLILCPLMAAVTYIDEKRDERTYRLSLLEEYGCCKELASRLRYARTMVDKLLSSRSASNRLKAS
Protocol: (§1) FP assays were carried out essentially as described previously ([35], [36]). FITC-conjugated ligands (15 nM) were mixed with PBDs at their EC85 concentrations. All the samples were analyzed approximately 30 min after reaction in a 384-well format using the SpectraMax Paradigm multimode microplate detection platform (Molecular Devices). Data were analyzed after carrying out at least three independent experiments using GraphPad Prism software version 8.
(§2) Fig. S4. Generation of F559 mutants for in vitro and cell-based assays in Fig. 4. (A) SDS-PAGE showing the proteins used for the FP assays in Fig. 4 A and B. CBB, a Coomassie Brilliant Blue– stained gel. (B) Summary of Kd and EC85 values for PBD1 WT and mutants. The Kd values for PBD1 WT and mutants were determined after extrapolating them from the binding curves as the concentration at which 50% of the FITC-Ahx-DPPLHSpTAI-NH2 are PBD1-bound. The EC85 values indicate the effective concentration of 85% of the maximal concentration calculated for each protein. The FP values were obtained 30 minutes after incubation. For the F559K and F559R mutants, we were not able to determine the EC85 values and therefore used 2 µM of these proteins for the assays in Fig. 4B. N.D., not determined. […]

[3] = biological target: T3, human His-Plk1 (Homo sapiens, UniProt P53350); assay: In vitro Plk1 kinase assay (casein, 32P); type: biochemical; conditions: casein substrate
T3 construct: His (N); purchased Sino Biological; host or cells: Sf9
T3 sequence (P53350 whole entry): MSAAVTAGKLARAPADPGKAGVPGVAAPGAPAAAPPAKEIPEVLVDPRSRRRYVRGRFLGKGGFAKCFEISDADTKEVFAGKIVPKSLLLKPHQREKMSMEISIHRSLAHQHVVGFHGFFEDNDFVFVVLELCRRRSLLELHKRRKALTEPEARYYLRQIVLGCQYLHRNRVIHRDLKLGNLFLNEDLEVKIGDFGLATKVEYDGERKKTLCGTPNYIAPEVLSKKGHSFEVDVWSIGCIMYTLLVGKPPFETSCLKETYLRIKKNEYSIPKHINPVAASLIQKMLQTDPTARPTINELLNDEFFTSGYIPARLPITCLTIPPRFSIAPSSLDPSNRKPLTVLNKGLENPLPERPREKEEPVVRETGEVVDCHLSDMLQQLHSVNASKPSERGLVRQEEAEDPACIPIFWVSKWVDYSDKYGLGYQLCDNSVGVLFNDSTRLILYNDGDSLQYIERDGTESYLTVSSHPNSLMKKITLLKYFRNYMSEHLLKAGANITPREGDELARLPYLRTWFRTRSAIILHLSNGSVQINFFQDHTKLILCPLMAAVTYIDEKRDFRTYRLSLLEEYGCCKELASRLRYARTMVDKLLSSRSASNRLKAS
Protocol: Kinase reactions were carried out in two steps. First, Sf9-purified 0.2 µg of human His-Plk1 (Sino Biological) was preincubated in a kinase cocktail [50 mM Tris-Cl (pH 7.5), 10 mM MgCl2, 2 mM dithiothreitol, 2 mM EGTA, and 27 mM p-nitrophenylphosphate] in the presence of either Allopole-A or p-13mer PBIP peptide for 20 min at 25 °C. The samples were then added with 1 µg of dephosphorylated casein (Sigma) and 1.25 µM of ATP (1.25 µCi of [γ^32P] ATP, 1Ci = 37 GBq) and reacted for additional 30 min at 30 °C. The reactions were terminated by the addition of 5× Laemmli SDS sample buffer, separated by 10% SDS-PAGE, and analyzed by autoradiography. To quantify the γ^32P signals, appropriate bands were excised from dried SDS-PAGE gels and analyzed by a liquid scintillation counter (Beckman model LS 6500).

[4] = biological target: T4, PBD1 F559K mutant (Homo sapiens, UniProt P53350, F559K); assay: FP-based binding/inhibition assay, PBD1 F559K; conditions: PBD1 F559K, 2 µM protein
T4 construct: constructs expressing PBD1 (residues 345–603) WT (pKM7650); His; TEV site (N); made in house; host or cells: bacteria (E. coli)
T4 sequence (P53350 345-603 F559K): as the sequence (P53350 345-603 F559E) above, with E215K counted along it
Protocol: as §1, §2

[5] = system: U2OS cells expressing Pendo-mGFP-Plk1 F559D; assay: MTS proliferation assay, U2OS Plk1 RNAi cells expressing Plk1 F559D; type: cell-based; conditions: 3 to 6 μM, 36 h
Protocol: Cell viability was determined using the […] CellTiter 96® AQueous One Solution Cell Proliferation Assay (MTS) kit (Promega) containing a tetrazolium compound [3-(4,5-dimethylthiazol-2-yl)-5-(3-carboxymethoxy-phenyl)-2-(4-sulfophenyl)-2H-tetrazolium, inner salt (MTS)] and an electron-coupling phenazine ethosulfate. For the MTS assays in Fig. 1B, L363 cells cultured in a 96-well plate were treated with the indicated compounds for 48 h (the final volume of 100 μL). After the compound treatment, cells were additionally treated with 20 μL of the MTS solution and incubated at 37 °C for 2 to 4 h in a humidified 5% CO2 atmosphere. The absorbance of the resulting sample was measured at 490 nm using a PerkinElmer EnSpire Multimode 96-well plate reader. For the MTS assays in Fig. 4E, U2OS cells stably expressing either Pendo-mGFP-Plk1 WT or F559D were seeded at approximately 5,000 cells/well in a 96-well plate, depleted of endogenous Plk1 by RNAi, and then treated with either control DMSO or Allopole as indicated in the schematic diagram in SI Appendix, Fig. S4E.

[6] = system: HeLa cells; assay: Time-lapse analysis of double thymidine-released HeLa cells; type: cell-based; conditions: HeLa released from double-thymidine block, 10 μM added 7 h after release
Protocol: To carry out time-lapse analysis, HeLa cells were arrested at the G1/S boundary by treating them with 2.5 mM of thymidine for 18 h, releasing them for 9 h, and then treating them again with the same dose of thymidine for another 18 h. The resulting cells were washed with fresh medium, released from the double-thymidine block for 7 h, and then treated with control DMSO or 10 μM of Allopole to examine their effect on cell cycle progression. At the indicated time points, cells were imaged every 30 min using a Keyence BZ-X710 all-in-one microscope.

Structure (SMILES)	PBD2 IC50 ± SD [1]	Inhibition of FITC-phosphopeptide binding (in words) [2]	Effect on His-Plk1 kinase activity in vitro (in words) [3]	Inhibition of FITC-phosphopeptide binding (in words) [4]	Proliferation (in words) [5]	Mitotic progression (in words) [6]
O=c1c2sc(Cl)cc2n2c(=S)[nH]nc2n1CC1CC1 [Allopole-A]	N. S.	failed to inhibit	significantly inhibited Plk1 activity	failed to inhibit	–	–
Cn1cnc([N+](=O)[O-])c1Sc1nnc2n(CC3CC3)c(=O)c3sc(Cl)cc3n12 [Allopole]	–	–	–	–	uninhibited proliferation	effectively blocked mitotic progression for several hours and induced cell death
